Earlier results in patent US6809181B2, “Human beta-defensin-3 (HBD-3), a highly cationic beta-defensin antimicrobial peptide” (University of Iowa Research Foundation, priority 2000, dated 2004).
Values after ≈ are worked out from the molar mass of the structure shown. Read-outs that look alike come from different tables or passages of the source.

Assays:
Bacillus spp. = conditions: cited from earlier work
[1] = test system: Bordetella bronchiseptica; conditions: n=11, r8, cited from earlier work
Bordetella parapertussis = conditions: n=46; r9; unit assumed; cited from earlier work
Bordetella pertussis = conditions: n=32; r10; unit assumed; cited from earlier work
Borrelia burgdorferi = conditions: n=10; r12; unit assumed; cited from earlier work
[2] = test system: Branhamella (Moraxella) catarrhalis (non β-lactamase producer); conditions: cited from earlier work
[3] = test system: Branhamella (Moraxella) catarrhalis (β-lactamase producer); conditions: cited from earlier work
Campylobacter jejuni = conditions: cited from earlier work; for MIC50 / MIC90: unit assumed
Corynebacterium JK = conditions: n=19; r46; unit assumed; cited from earlier work
Enterococcus faecalis = conditions: cited from earlier work
Enterococcus faecium = conditions: n=14, r51, cited from earlier work
[4] = test system: Haemophilus influenzae (non β-lactamase producer); conditions: n=137; r58; cited from earlier work
[5] = test system: Haemophilus influenzae (penicillin susceptible); conditions: n=22, r64, cited from earlier work
[6] = test system: Haemophilus parainfluenzae; conditions: n=13, r68, cited from earlier work
Mycoplasma pneumoniae = conditions: cited from earlier work
Neisseria gonorrhoeae = conditions: n=19, r81, cited from earlier work
[7] = test system: Neisseria gonorrhoeae (non β-lactamase producer); conditions: cited from earlier work
[8] = test system: Neisseria gonorrhoeae (β-lactamase producer); conditions: cited from earlier work
Neisseria meningitidis = conditions: n=19, r90, cited from earlier work
[9] = test system: Staphylococcus aureus (penicillin susceptible); conditions: cited from earlier work; for MIC50 / MIC90: unit assumed
[10] = test system: Staphylococcus aureus (methicillin susceptible); conditions: unit assumed, cited from earlier work
[11] = test system: Staphylococcus coagulase f; conditions: unit assumed; cited from earlier work
[12] = test system: Staphylococcus epidermidis; conditions: n=50; r120; unit assumed; cited from earlier work
[13] = test system: Staphylococcus haemolyticus; conditions: n=20; r121; unit assumed; cited from earlier work
Staphylococcus hominis = conditions: n=20; r122; unit assumed; cited from earlier work
Streptococcus agalactiae = conditions: cited from earlier work
Streptococcus pneumoniae = conditions: cited from earlier work; for MIC90: unit assumed
Streptococcus pyogenes = conditions: cited from earlier work
Streptococcus spp. = conditions: cited from earlier work; for MIC50 / MIC90: unit assumed

Compound: CC[C@H]1OC(=O)[C@H](C)[C@@H](O[C@H]2C[C@@](C)(OC)[C@@H](O)[C@H](C)O2)[C@H](C)[C@@H](O[C@@H]2O[C@H](C)C[C@H](N(C)C)[C@H]2O)[C@](C)(O)C[C@@H](C)C(=O)[C@H](C)[C@@H](O)[C@]1(C)O [ERYTHROMYCIN, erythromycin]
- Range (Bacillus spp.; n=20, r6): 0.03-2
- MIC90 (Bacillus spp.; n=20, r6, unit assumed): 2 µg/mL (≈ 2.73 µM)
- MIC50 (Bacillus spp.; unit assumed): 0.25 µg/mL (≈ 0.341 µM)
- Range [1]: 4-32
- MIC50 ([1]; unit assumed): 8 µg/mL (≈ 10.9 µM)
- MIC90 ([1]; unit assumed): 32 µg/mL (≈ 43.6 µM)
- MIC50 (Bordetella parapertussis): 0.25 µg/mL (≈ 0.341 µM)
- MIC50 (Bordetella pertussis): 0.25 µg/mL (≈ 0.341 µM)
- MIC50 (Borrelia burgdorferi): 0.03 µg/mL (≈ 0.0409 µM)
- MIC90 (Borrelia burgdorferi): 0.06 µg/mL (≈ 0.0818 µM)
- Range ([2]; n=14, r23): 0.06-1
- Range ([2]; n=16, r26): 0.015-1
- Range ([2]; n=40, r17): 0.06-0.5
- Range ([3]; n=47, r29): 0.06-1
- Range ([3]; n=58, r32): 0.03-0.25
- Range ([3]; n=160, r35): 0.06-8
- MIC50 (Campylobacter jejuni; n=16, r42): 0.25 µg/mL (≈ 0.341 µM)
- MIC90 (Campylobacter jejuni; n=16, r42): 2 µg/mL (≈ 2.73 µM)
- Range (Campylobacter jejuni; n=25, r41): 0.5-8
- MIC50 (Campylobacter jejuni; n=25, r41): 1 µg/mL (≈ 1.36 µM)
- MIC90 (Campylobacter jejuni; n=25, r41): 4 µg/mL (≈ 5.45 µM)
- MIC50 (Corynebacterium JK): 2 µg/mL (≈ 2.73 µM)
- Range (Enterococcus faecalis; n=26, r47): 1-64
- MIC50 (Enterococcus faecalis; n=26, r47, unit assumed): 1 µg/mL (≈ 1.36 µM)
- MIC90 (Enterococcus faecalis; n=26, r47, unit assumed): 4 µg/mL (≈ 5.45 µM)
- Range (Enterococcus faecalis; n=50, r48): 0.06-64
- MIC50 (Enterococcus faecalis; n=50, r48, unit assumed): 4 µg/mL (≈ 5.45 µM)
- MIC50 (Enterococcus faecalis; n=86, r49, unit assumed): 1 µg/mL (≈ 1.36 µM)
- MIC50 (Enterococcus faecalis; n=97, r50, unit assumed): 2 µg/mL (≈ 2.73 µM)
- Range (Enterococcus faecium): 0.06-64
- MIC50 (Enterococcus faecium; unit assumed): 1 µg/mL (≈ 1.36 µM)
- Range [4]: 0.06-8
- Range [5]: 0.25-16
- MIC50 ([5]; unit assumed): 8 µg/mL (≈ 10.9 µM)
- MIC90 ([5]; unit assumed): 16 µg/mL (≈ 21.8 µM)
- Range [6]: 0.5-8
- MIC50 ([6]; unit assumed): 2 µg/mL (≈ 2.73 µM)
- MIC90 ([6]; unit assumed): 4 µg/mL (≈ 5.45 µM)
- Range (Mycoplasma pneumoniae; n=10, r79): 0.06-8
- MIC90 (Mycoplasma pneumoniae; n=10, r79, unit assumed): 0.06 µg/mL (≈ 0.0818 µM)
- Range (Mycoplasma pneumoniae; n=14, r80): 0.004-0.03
- MIC50 (Mycoplasma pneumoniae; n=14, r80, unit assumed): 0.004 µg/mL (≈ 0.00545 µM)
- MIC90 (Mycoplasma pneumoniae; n=14, r80, unit assumed): 0.004 µg/mL (≈ 0.00545 µM)
- Range (Neisseria gonorrhoeae): 0.0075-8
- MIC50 (Neisseria gonorrhoeae; unit assumed): 0.25 µg/mL (≈ 0.341 µM)
- MIC90 (Neisseria gonorrhoeae; unit assumed): 1 µg/mL (≈ 1.36 µM)
- Range ([7]; n=73, r82): 0.015-4
- Range ([7]; n=78, r84): 0.03-2
- Range ([8]; n=12, r86): 0.03-4
- Range ([8]; n=17, r88): 1-4
- Range (Neisseria meningitidis): 0.5-8
- MIC50 (Neisseria meningitidis; unit assumed): 1 µg/mL (≈ 1.36 µM)
- MIC90 (Neisseria meningitidis; unit assumed): 8 µg/mL (≈ 10.9 µM)
- MIC50 ([9]; n=20, r94): 0.5 µg/mL (≈ 0.681 µM)
- MIC90 ([9]; n=20, r94): 0.5 µg/mL (≈ 0.681 µM)
- Range ([9]; n=35, r96): 0.06-32
- MIC50 ([9]; n=35, r96): 0.25 µg/mL (≈ 0.341 µM)
- MIC90 ([9]; n=35, r96): 0.5 µg/mL (≈ 0.681 µM)
- MIC50 ([10]; n=20, r104): 0.5 µg/mL (≈ 0.681 µM)
- MIC90 ([10]; n=20, r104): 0.5 µg/mL (≈ 0.681 µM)
- MIC50 ([10]; n=28, r100): 0.25 µg/mL (≈ 0.341 µM)
- MIC90 ([10]; n=28, r100): 0.5 µg/mL (≈ 0.681 µM)
- MIC50 ([10]; n=97, r102): 0.25 µg/mL (≈ 0.341 µM)
- MIC50 [11]: 0.25 µg/mL (≈ 0.341 µM)
- MIC50 [12]: 64 µg/mL (≈ 87.2 µM)
- MIC50 [13]: 64 µg/mL (≈ 87.2 µM)
- MIC50 (Staphylococcus hominis): 64 µg/mL (≈ 87.2 µM)
- Range (Streptococcus agalactiae; n=20, r123): 0.03-0.25
- MIC50 (Streptococcus agalactiae; n=20, r123, unit assumed): 0.03 µg/mL (≈ 0.0409 µM)
- Range (Streptococcus agalactiae; n=34, r124): 0.015-0.06
- MIC50 (Streptococcus agalactiae; n=34, r124, unit assumed): 0.03 µg/mL (≈ 0.0409 µM)
- MIC90 (Streptococcus agalactiae; n=34, r124, unit assumed): 0.03 µg/mL (≈ 0.0409 µM)
- Range (Streptococcus pneumoniae; n=26, r129): 0.015-0.25
- MIC90 (Streptococcus pneumoniae; n=26, r129): 0.06 µg/mL (≈ 0.0818 µM)
- Range (Streptococcus pneumoniae; n=50, r127): 0.015-0.06
- MIC90 (Streptococcus pneumoniae; n=50, r127): 0.03 µg/mL (≈ 0.0409 µM)
- MIC90 (Streptococcus pneumoniae; n=50, r130): 0.06 µg/mL (≈ 0.0818 µM)
- Range (Streptococcus pneumoniae; n=58, r125): 0.03-0.25
- Range (Streptococcus pyogenes; n=19, r131): 0.03-0.25
- Range (Streptococcus pyogenes; n=20, r132): 0.03-0.25
- Range (Streptococcus pyogenes; n=20, r134): 0.06-32
- MIC90 (Streptococcus pyogenes; n=20, r134, unit assumed): 32 µg/mL (≈ 43.6 µM)
- Range (Streptococcus pyogenes; n=33, r133): 0.015-0.03
- MIC50 (Streptococcus pyogenes; n=33, r133, unit assumed): 0.03 µg/mL (≈ 0.0409 µM)
- MIC90 (Streptococcus pyogenes; n=33, r133, unit assumed): 0.03 µg/mL (≈ 0.0409 µM)
- Range (Streptococcus spp.; n=22, r135): 0.015-0.25
- MIC50 (Streptococcus spp.; n=22, r135): 0.03 µg/mL (≈ 0.0409 µM)
- MIC90 (Streptococcus spp.; n=22, r135): 0.06 µg/mL (≈ 0.0818 µM)
- Range (Streptococcus spp.; n=107, r136): 0.004-2
- MIC50 (Streptococcus spp.; n=107, r136): 0.03 µg/mL (≈ 0.0409 µM)
- MIC90 (Streptococcus spp.; n=107, r136): 1 µg/mL (≈ 1.36 µM)
